Experimental findings from ChEMBL document CHEMBL1125546, “Novel 5-HT3 antagonists. Isoquinolinones and 3-aryl-2-pyridones” (J Med Chem, 1992) are described below.

For assay [1], the system named is Rattus norvegicus. Kind of assay: Inhibitory activity against Bezold-jarisch functional assay, inducing a transient bradycardia upon intravenous administration of 5-hydroxytryptamine-(10 ug/kg) in anesthetized rats. The note with it: read-out: ID50 (the source's name).
A short description of assay [2]: Compound was evaluated for protection against cisplatin-induced emesis by measuring number of retches in ferrets when administered intravenously at 0.1 mg/kg. Type of assay: functional, Mustela putorius furo. The note with it: route intravenous.
Assay [3] in a line: Compound was evaluated for protection against cisplatin-induced emesis by measuring number of emetic episodes in ferrets when administered intravenously at 0.1 mg/kg. Format: functional, Mustela putorius furo. Particulars: route intravenous.
The nature of assay [4]: Compound was evaluated for protection against cisplatin-induced emesis by measuring number of retches in ferrets when administered intravenously at 0.03 mg/kg. Particulars: route intravenous. Format: functional, Mustela putorius furo.
The nature of assay [5]: Compound was evaluated for protection against cisplatin-induced emesis by measuring number of emetic episodes in ferrets when administered intravenously at 0.03 mg/kg. Type of assay: functional, Mustela putorius furo. Particulars: route intravenous.
The nature of assay [6]: Compound was evaluated for protection against cisplatin-induced emesis by measuring number of emetic episodes in ferrets administered perorally at 0.1 mg/kg. The note with it: route oral. Type of assay: functional, Mustela putorius furo.
Assay [7] relates to Canis familiaris. Kind of assay: Compound was evaluated for protection against cisplatin-induced emesis by measuring number of retches in dogs administered intravenously at 0.03 mg/kg. Format: functional, Canis lupus familiaris. Particulars: route intravenous.
The nature of assay [8]: Compound was evaluated for protection against cisplatin-induced emesis by measuring number of retches in ferrets administered intravenously at 0.01 mg/kg. Type of assay: functional, Mustela putorius furo. Particulars: route intravenous.
Assay [9] deals with Canis familiaris. Kind of assay: Compound was evaluated for protection against cisplatin-induced emesis by measuring number of retches in dogs administered perorally at 1.0 mg/kg. Type of assay: functional, Canis lupus familiaris. The note with it: route oral.
The nature of assay [10]: Compound was evaluated for protection against cisplatin-induced emesis by measuring number of retches in ferrets administered perorally at 0.3 mg/kg. Format: functional, Mustela putorius furo. The note with it: route oral.
In assay [11] the test system is Canis familiaris. Kind of assay: Compound was evaluated for protection against cisplatin-induced emesis by measuring number of emetic episodes in dogs administered perorally at 0.3 mg/kg. Type of assay: functional, Canis lupus familiaris. The note with it: route oral.
Assay [12] is described as follows: Compound was evaluated for number of emetic episodes in ferrets administered intravenously at 0.01 mg/kg. Format: functional, Mustela putorius furo. The note with it: route intravenous.
The nature of assay [13]: Compound was evaluated for protection against cisplatin-induced emesis by measuring number of emetic episodes in ferrets administered perorally at 1.0 mg/kg. Type of assay: functional, Mustela putorius furo. The note with it: route oral.
The subject of assay [14] is Canis familiaris. Kind of assay: Compound was evaluated for protection against cisplatin-induced emesis by measuring number of emetic episodes in dogs administered intravenously at 0.3 mg/kg. Type of assay: functional, Canis lupus familiaris. Particulars: route intravenous.
Assay [15] has as its system Canis familiaris. Kind of assay: Compound was evaluated for protection against cisplatin-induced emesis by measuring number of retches in dogs administered intravenously at 0.1 mg/kg. Particulars: route intravenous. Format: functional, Canis lupus familiaris.
For assay [16], the system named is Canis familiaris. Kind of assay: Compound was evaluated for protection against cisplatin-induced emesis by measuring number of retches in dogs administered intravenously at 0.3 mg/kg. Type of assay: functional, Canis lupus familiaris. Particulars: route intravenous.
Assay [17] in a line: Compound was evaluated for protection against cisplatin-induced emesis by measuring number of emetic episodes in ferrets administered perorally at 0.3 mg/kg. Format: functional, Mustela putorius furo. Particulars: route oral.
For assay [18], the system named is Canis familiaris. Kind of assay: Compound was evaluated for protection against cisplatin-induced emesis by measuring number of emetic episodes in dogs administered perorally at 0.1 mg/kg. Type of assay: functional, Canis lupus familiaris. The note with it: route oral.
The test system of assay [19] is Canis familiaris. Kind of assay: Compound was evaluated for protection against cisplatin-induced emesis by measuring number of emetic episodes in dogs administered intravenously at 0.03 mg/kg. Type of assay: functional, Canis lupus familiaris. The note with it: route intravenous.
Assay [20] concerns Canis familiaris. Kind of assay: Compound was evaluated for protection against cisplatin-induced emesis by measuring number of emetic episodes in dogs administered intravenously at 0.1 mg/kg. Type of assay: functional, Canis lupus familiaris. The note with it: route intravenous.
Assay [21] in a line: Compound was evaluated for protection against cisplatin-induced emesis by measuring number of emetic episodes in ferrets administered intravenously at 0.03 mg/kg. Type of assay: functional, Mustela putorius furo. The note with it: route intravenous.
Assay [22] is described as follows: Compound was evaluated for protection against cisplatin-induced emesis by measuring number of emetic episodes in ferrets administered intravenously at 0.3 mg/kg. Format: functional, Mustela putorius furo. Particulars: route intravenous.
For assay [23], the system named is Canis familiaris. Kind of assay: Compound was evaluated for number of retches in dogs administered perorally at 0.3 mg/kg. Format: functional, Canis lupus familiaris. Particulars: route oral.
Assay [24] concerns Canis familiaris. Kind of assay: Compound was evaluated for protection against cisplatin-induced emesis by measuring number of emetic episodes in dogs administered perorally at 1.0 mg/kg. Particulars: route oral. Type of assay: functional, Canis lupus familiaris.
Assay [25] is described as follows: Compound was evaluated for protection against cisplatin-induced emesis by measuring number of retches in ferrets administered intravenously at 0.1 mg/kg. Particulars: route intravenous. Format: functional, Mustela putorius furo.
Assay [26] can be described thus: Compound was evaluated for protection against cisplatin-induced emesis by measuring number of retches in ferrets administered intravenously at 0.3 mg/kg. Type of assay: functional, Mustela putorius furo. Particulars: route intravenous.
The nature of assay [27]: Compound was evaluated for protection against cisplatin-induced emesis by measuring number of retches in ferrets administered intravenously at 0.03 mg/kg. Type of assay: functional, Mustela putorius furo. Particulars: route intravenous.
Assay [28] can be described thus: Compound was evaluated for protection against cisplatin-induced emesis by measuring number of emetic episodes in ferrets administered intravenously at 0.1 mg/kg. Format: functional, Mustela putorius furo. Particulars: route intravenous.
The nature of assay [29]: Compound was evaluated for protection against cisplatin-induced emesis by measuring number of retches in ferrets administered perorally at 0.1 mg/kg. Format: functional, Mustela putorius furo. The note with it: route oral.
The nature of assay [30]: Compound was evaluated for protection against cisplatin-induced emesis by measuring number of retches in ferrets administered perorally at 1.0 mg/kg. Type of assay: functional, Mustela putorius furo. The note with it: route oral.
For assay [31], the system named is Canis familiaris. Kind of assay: Compound was evaluated for protection against cisplatin-induced emesis by measuring number of retches in dogs administered perorally at 0.1 mg/kg. Format: functional, Canis lupus familiaris. Particulars: route oral.
The nature of assay [32]: Compound was evaluated for protection against cisplatin-induced emesis by measuring number of emetic episodes in ferrets when administered perorally at 0.03 mg/kg. Format: functional, Mustela putorius furo. The note with it: route oral.
The nature of assay [33]: Compound was evaluated for protection against cisplatin-induced emesis by measuring number of emetic episodes in ferrets when administered intravenously at 0.01 mg/kg. Format: functional, Mustela putorius furo. Particulars: route intravenous.
The nature of assay [34]: Compound was evaluated for protection against cisplatin-induced emesis by measuring number of retches in ferrets when administered intravenously at 0.1 mg/kg. Type of assay: functional, Mustela putorius furo. Particulars: route intravenous.
Assay [35] can be described thus: Compound was evaluated for protection against cisplatin-induced emesis by measuring number of emetic episodes in ferrets when administered perorally at 0.3 mg/kg. Format: functional, Mustela putorius furo. The note with it: route oral.
Assay [36] in a line: Compound was evaluated for protection against cisplatin-induced emesis by measuring number of emetic episodes in ferrets when administered intravenously at 0.3 mg/kg. Type of assay: functional, Mustela putorius furo. Particulars: route intravenous.
Assay [37] is described as follows: Compound was evaluated for protection against cisplatin-induced emesis by measuring number of retches in ferrets when administered intravenously at 0.3 mg/kg. Format: functional, Mustela putorius furo. Particulars: route intravenous.
The nature of assay [38]: Compound was evaluated for protection against cisplatin-induced emesis by measuring number of retches in ferrets when administered perorally at 0.03 mg/kg. Particulars: route oral. Type of assay: functional, Mustela putorius furo.
Assay [39] is described as follows: Compound was evaluated for protection against cisplatin-induced emesis by measuring number of retches in ferrets when administered perorally at 0.1 mg/kg. Type of assay: functional, Mustela putorius furo. The note with it: route oral.
Assay [40] is described as follows: Compound was evaluated for protection against cisplatin-induced emesis by measuring number of emetic episodes in ferrets when administered perorally at 0.1 mg/kg. Type of assay: functional, Mustela putorius furo. Particulars: route oral.
Assay [41] is described as follows: Compound was evaluated for protection against cisplatin-induced emesis by measuring number of retches in ferrets when administered intravenously at 0.01 mg/kg. Format: functional, Mustela putorius furo. The note with it: route intravenous.
Assay [42] is described as follows: Compound was evaluated for protection against cisplatin-induced emesis by measuring number of retches in ferrets when administered perorally at 0.3 mg/kg. Format: functional, Mustela putorius furo. The note with it: route oral.

On to `Cc1[nH]cnc1Cn1ccc2ccc3ncccc3c2c1=O`, for which, in assay [1], the ED50 amounted to 2.86 µg/kg.

`Cc1nc[nH]c1Cn1ccc2cc(C)c3ccccc3c2c1=O`: the ED50 in assay [1] was 0.82 µg/kg.

`Cc1[nH]cnc1Cn1cccc(-c2ccccc2)c1=O`: in [1], the ED50 was 12 µg/kg.

For the compound `Cc1[nH]cnc1Cn1ccc2cnc3ccccc3c2c1=O`, the ED50 in [1] was determined as 0.28 µg/kg.

For the compound `CCn1c2ccccc2c2c3c(=O)n(Cc4[nH]cnc4C)ccc3ccc21`, in assay [1], the ED50 turned out to be 43.9 µg/kg.

As for `Cc1[nH]cnc1Cn1ccc2ccccc2c1=O`, in assay [1], the ED50 came out at 38.7 µg/kg.

Take `Cc1nc[nH]c1Cn1ccc2c(=O)n(C)c3ccccc3c2c1=O`: the ED50 in assay [1] was found to be 0.23 µg/kg.

`Cc1[nH]cnc1Cn1ccc2ncc3ccccc3c2c1=O`: the ED50 in assay [1] came to 0.16 µg/kg.

`Cc1[nH]cnc1Cn1ccc2c3ccccc3c3ccccc3c2c1=O`: the ED50 in [1] amounted to 6.95 µg/kg.

Take `Cc1[nH]cnc1Cn1cccc(-c2cccs2)c1=O`: the figures for the No. of retches in [2] and in assay [4] were 22 and 90.8, respectively. Besides, the “No. of emetic episodes” value in assay [3] is given as 1.3; in assay [5], 6. In addition, the ED50 in assay [1] was 0.27 µg/kg.

Take `COc1cc(N)c(Cl)cc1C(=O)NCc1[nH]cnc1C`: the ED50 in assay [1] came to 3.53 µg/kg.

Regarding `Cc1nc[nH]c1Cn1ccc2c(C)cc3ccccc3c2c1=O`, in assay [1], the ED50 was 1.09 µg/kg.

For the compound `Cc1[nH]cnc1Cn1ccc2c(N)cccc2c1=O`, the ED50 in assay [1] was above 100 µg/kg.

Consider `Cc1cc2c(=O)n(Cc3[nH]cnc3C)ccc2cc1N`, for which the ED50 in assay [1] turned out to be 4.1 µg/kg.

Regarding `Cc1[nH]cnc1Cn1cccc(-c2cccc(Cl)c2)c1=O`, the ED50 in assay [1] came out at 10 µg/kg.

In the case of `Cc1[nH]cnc1Cn1ccc2ccc3ccccc3c2c1=O`, the “No. of emetic episodes” value in [6] is reported as 4.8; in assay [11], 4; in assay [12] it was 10.8; in assay [13] it was 0; in assay [14] it was 3.4; in assay [17], 1.3. Besides, the “No. of emetic episodes” value in [18] turned out to be 10.8; in assay [19], 10.2; in assay [20] it was 4.4; in assay [21], 5; in [22] it was 0; in assay [24], 1.8. The “No. of emetic episodes” value in assay [28] is recorded as 2. Further, the No. of retches in [7] stood at 143.8; in assay [8] it was 144.5; in assay [9], 26.3; in assay [10], 31.5; in assay [15], 53.8; in [16], 42.4. For the same compound, the No. of retches in assay [23] turned out to be 27.8; in assay [25], 65; in [26] it was 11.8; in assay [27] it was 79; in [29], 89.3; in [30], 1. In addition, the No. of retches in assay [31] is given as 133.2. Further, in assay [1], the ED50 was determined as 0.3 µg/kg.

As for `Cc1[nH]cnc1Cn1cccc(-c2ccc(Br)s2)c1=O`, in assay [1], the ED50 worked out at 7.49 µg/kg.

As for `Cc1[nH]cnc1Cn1ncc2ccccc2c1=O`, the ED50 in assay [1] is above 100 µg/kg.

As to `Cc1[nH]cnc1Cn1cccc(-c2ccccc2O)c1=O`, the ED50 in assay [1] amounted to 40 µg/kg.

As for `Cc1ccc(-c2cccn(Cc3[nH]cnc3C)c2=O)s1`, the ED50 in assay [1] is 3.62 µg/kg.

Take `Cc1[nH]cnc1Cn1ccc2c(c1=O)-c1ccsc1CC2`: the ED50 in [1] came out at 2.78 µg/kg.

Take `Cc1[nH]cnc1Cn1cccc(-c2cccn2C)c1=O`: the ED50 in [1] was determined as 43.3 µg/kg.

For `Cc1[nH]cnc1Cn1ccc2nc3ccccc3cc2c1=O`, in [1], the ED50 worked out at 19.5 µg/kg.

Take `Cc1[nH]cnc1Cn1ccc2cc(N)c(Cl)cc2c1=O`: the “No. of emetic episodes” value came to 8.8 in [32]; 10 in [33]; 1.3 in assay [3]; 0.2 in [35]; 0.8 in assay [36]; 1.2 in assay [40]. Also, the “No. of emetic episodes” value in [5] is 4.8. For the same compound, the No. of retches is on record as 26.5 in [34]; 18.8 in assay [37]; 142.2 in [38]; 18.6 in assay [39]; 71 in assay [4]; 116.8 in [41]. In assay [42], this compound displayed a No. of retches of 3.5. Besides, the ED50 in assay [1] is 0.36 µg/kg.

As for `COc1cccc(-c2cccn(Cc3[nH]cnc3C)c2=O)c1`, the ED50 in [1] was 26.7 µg/kg.

In the case of `Cc1[nH]cnc1Cn1ccc2ccc(Cl)cc2c1=O`, the ED50 in [1] was found to be 25.5 µg/kg.

For the compound `Cc1[nH]cnc1Cn1ccc2ccc3c(ccn3C)c2c1=O`, the ED50 in assay [1] worked out at 1.64 µg/kg.
